{"source": "patent US9133225B2", "about": "“Dual targeting anticancer agents” (priority 2013, dated 2015)", "key": {"HeLa cells": {"system": "HeLa cells", "assay": "MTT cytotoxicity assay, HeLa", "details": "read-out: cytotoxicity IC50; HeLa, cervical; MTT, 48 h treatment; spread in brackets", "source_text": "(§1) (a) Dulbecco's Modified Eagle Medium (DMEM), Dulbecco's phosphate buffered saline (DPBS), fetal bovine serum (FBS) and 0.25% trypsin/EDTA solutions were purchased from Cellgro (Manassas, Va.). Penicillin-streptomycin solutions were purchased from Mediatech (Manassas, Va.). (b) HeLa (CCL-2TM) cells, A549, A2870, A2870/CP70, MCF-7, PC-3, and MRC-5 cells were purchased from American Type Culture Collection (ATCC, Manassas, Va., USA). (c) HCT116 cells were kindly donated by Laura Trudel (MIT). HeLa, A549, MCF-7, and MRC-5 cells were cultured using DMEM supplemented with 10% FBS and 1% penicillin-streptomycin. A2870, A2870/CP70, and PC-3 cells were cultured in RPMI supplemented with 10% FBS and 1% penicillin-streptomycin. HCT116 cells were cultured in McCoy's supplemented with 10% FBS and 1% penicillin-streptomycin. All cell-culture experiments were performed in the aforementioned media in an incubator operating at 37° C. and in the presence of a humidified atmosphere containing 5.0% CO2. Cells were harvested using a 0.25% trypsin/EDTA solution.\n(§2) The cytotoxicity of the compounds was assessed by means of the MTT assay (MTT=3-(4,5-dimethyl-2-thiazolyl)-2,5-diphenyl-2H-tetrazolium bromide). Typically, on day one, ˜1×10^3 cells were seeded into 96-well plates in 100 μL media per well. […] The optical density for each well at 550 nm was measured with a microplate reader."}, "[1]": {"system": "A2780 ovarian carcinoma cells", "assay": "MTT cytotoxicity assay, A2780", "details": "read-out: cytotoxicity IC50; A2780, ovarian; MTT, 48 h treatment; spread in brackets", "source_text": "as §1, §2"}, "[2]": {"system": "A2780/CP70 cells (CisPt resistant)", "assay": "MTT cytotoxicity assay, A2780/CP70", "details": "read-out: cytotoxicity IC50; A2780/CP70, ovarian (CisPt resistant); MTT, 48 h treatment; spread in brackets", "source_text": "as §1, §2"}, "[3]": {"system": "MRC-5 non-tumorigenic lung fibroblast cells", "assay": "MTT cytotoxicity assay, MRC-5", "details": "read-out: cytotoxicity IC50; MRC-5, lung normal; MTT, 48 h treatment; spread in brackets", "source_text": "as §1\nThe cytotoxicity of the compounds was assessed by means of the MTT assay (MTT=3-(4,5-dimethyl-2-thiazolyl)-2,5-diphenyl-2H-tetrazolium bromide). Typically, on day one, ˜1×10^3 cells were seeded into 96-well plates in 100 μL media per well. The last row of the plate was left empty as a control for background absorption. The cells were allowed to grow for 24 h in the incubator at 37° C. On day two, a series of drug dilutions in growth media were prepared immediately prior to cell treatment. The media in the wells of the 96 plates were replaced with 100 μL of growth media containing appropriate drug concentrations. The cells were treated for 48 h at 37° C. in the incubator. On day four, a stock solution of MTT (5 mg/mL in PBS buffer) was diluted with media so that, when 100 μL of the media was added to each well, 10 μL of MTT stock was applied. The cells were incubated for 2 h and then all the media was replaced with 100 μL of DMSO to dissolve the purple MTT-formazan crystals. The optical density for each well at 550 nm was measured with a microplate reader."}, "A549 cells": {"system": "A549 cells", "assay": "JC-1 mitochondrial membrane potential assay", "type": "cell-based", "protocol": "To investigate the effect of Pt(IV)(α-TOS)(OEt) on mitochondria, changes in the mitochondrial membrane potential were assessed by the JC-1 assay. JC-1 (5,5′,6,6′-tetrachloro-1,1′3,3′-tetraethylbenzimidazolylcarbocyanine iodide) is a positively charged lipophilic dye, which accumulates in the mitochondria of healthy cells as red-emitting aggregates. When the mitochondrial membrane is compromised, JC-1 de-aggregates into monomeric forms that emit green fluorescence. […] These findings were confirmed using flow cytometry. A large population of untreated and Pt(IV)(α-TOS)(OEt)-treated A549 cells were examined.\nIn order to monitor the cell cycle, flow cytometry studies were carried out. A549 cells were incubated with and without the test compounds for 24 and 48 h at 37° C. Cells were harvested from adherent cultures by trypsinization and combined with all detached cells from the incubation medium to assess total cell viability. Following centrifugation at 1000 rpm for 5 min, cells were washed with PBS and then fixed with 70% ethanol in PBS. Fixed cells were collected by centrifugation at 2500 rpm for 3 min, washed with PBS and centrifuged as before. Cellular pellets were re-suspended in 50 μg/mL propidium iodide (Sigma) in PBS for nucleic acids staining and treated with 100 μg/mL RNaseA (Sigma). DNA content was measured on a FACSCalibur-HTS flow cytometer (BD Biosciences) using laser excitation at 488 nm and 20,000 events per sample were acquired. Cell cycle profiles were analysed using the ModFit software. For the apoptosis experiments, the Annexin V-FITC Early Apoptosis Detection Kit (Cell Signaling Technology) was used. […] The samples were kept on ice prior to being read on the FACSCalibur-HTS flow cytometer (BD Biosciences) (20,000 events per sample were acquired). Cell populations were analysed using the FlowJo software (Tree Star). […] The cells were incubated for 30 min, harvested, and analysed by using the FACSCalibur-HTS flow cytometer (BD Biosciences) (20,000 events per sample were acquired). […] Cell populations were analysed using the FlowJo software (Tree Star)."}}}
{"smiles": "CC[O][Pt]([NH2])([NH2])([Cl])([Cl])[O]C(=O)CCC(=O)Oc1c(C)c(C)c2c(c1C)CCC(C)(CCCC(C)CCCC(C)CCCC(C)C)O2", "note": "(stereo not drawn) [Pt(IV)(α-TOS)(OEt)]", "values": [{"measurement": "IC50", "setting": "HeLa cells", "result": 1.9, "unit": "µM"}, {"measurement": "IC50", "setting": "[1]", "result": 0.02, "unit": "µM"}, {"measurement": "IC50", "setting": "[2]", "result": 1.1, "unit": "µM"}, {"measurement": "IC50", "setting": "[3]", "result": 5.3, "unit": "µM"}, {"measurement": "cells expressing green JC-1 fluorescence (FL1-H), flow cytometry", "setting": "A549 cells; 25 μM, 4 h", "result": "a marked increase in cells expressing green fluorescence"}, {"measurement": "JC-1 fluorescence (mitochondrial membrane disruption), microscopy", "setting": "A549 cells; cisplatin or Pt(IV)(α-TOS)(OEt) at 20 μM, 4 hours", "result": "A similar phenomenon was observed"}]}
